Test results from patent US20230271995A1, “METHODS FOR PRODUCING DIHYDRONICOTINAMIDE RIBOSIDE FROM NICOTINAMIDE RIBOSIDE CHLORIDE” (SOCIETE DES PRODUITS NESTLE S.A., priority 2020, published 2023).

Assays:
NAD^+ = details: NR taken as a supplement; cited from earlier work
[1] = Thermogravimetric analysis (TGA) thermal stability under N2; format: physicochemical; details: 25 to 900° C.
Method: Characterization. […] Thermogravimetric analysis (TGA) thermograms were prepared in the range of 20-900° C. at a temperature rate of 10° C. min^−1 under N2 flow, using a TA Q100 instrument.

[2] = Stability of NRH and NR aqueous solutions over 60 days of storage, remaining concentration by HPLC; details: aqueous solution, atmosphere not stated

temperature of greatest weight loss (TGA) ([1]; 10° C. min^−1, N2 atmosphere)	degradation ([2]; 4° C., 60 days)	degradation ([2]; 25° C., 30 days)	degradation ([2]; 25° C., 60 days)	weight loss at the temperature of greatest weight loss (TGA) ([1]; N2 atmosphere)	SMILES	boost of the level of NAD^+ (NAD^+)
~910 °C	no detectable degradation	48%	68%		NC(=O)c1ccc[n+]([C@@H]2O[C@H](CO)[C@@H](O)[C@H]2O)c1 [NR, nicotinamide riboside]	60%
				around 65%	NC(=O)c1ccc[n+]([C@@H]2O[C@H](CO)[C@@H](O)[C@H]2O)c1.[Cl-] [NRCl, nicotinamide riboside chloride]	
